From ChEMBL document CHEMBL1201862, “PubChem BioAssay data set” (2004)
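Exposure lasted 48 hours, with cells grown in 96-well plates and compounds tested at five concentrations. GI50 = concentration required for 50% inhibition of growth.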 Active and inactive are the calls of the source. Rule as the data show it: active = GI50 up to about 1.1 µM and inactive = higher.

Tests used:
Assay in all cases: NCI anticancer screen, dose series, 48 h
SK-OV-3 = system: SK-OV-3
MOLT-4 = system: MOLT-4
SR = system: SR
CAKI-1 = system: CAKI-1
COLO 205 = system: COLO 205
T47D = system: T47D
SF-539 = system: SF-539
NCI-H460 = system: NCI-H460
SK-MEL-5 = system: SK-MEL-5
786-0 = system: 786-0
MDA-N = system: MDA-N
UACC-62 = system: UACC-62
M14 = system: M14
TK-10 = system: TK-10
HCT-15 = system: HCT-15
RXF 393 = system: RXF 393
KM12 = system: KM12
EKVX = system: EKVX
UACC-257 = system: UACC-257
SN12C = system: SN12C
SW-620 = system: SW-620
CCRF-CEM = system: CCRF-CEM
SK-MEL-2 = system: SK-MEL-2
HCT-116 = system: HCT-116
K562 = system: K562
BT-549 = system: BT-549
SF-268 = system: SF-268
NCI-H226 = system: NCI-H226
OVCAR-8 = system: OVCAR-8
SNB-19 = system: SNB-19
MDA-MB-435 = system: MDA-MB-435
HOP-92 = system: HOP-92
A498 = system: A498
HL-60 = system: HL-60
PC-3 = system: PC-3
SNB-75 = system: SNB-75
U-251 = system: U-251
SK-MEL-28 = system: SK-MEL-28
IGROV-1 = system: IGROV-1
Malme-3M = system: Malme-3M
A549 = system: A549
NCI/ADR-RES = system: NCI/ADR-RES
SF-295 = system: SF-295
DU-145 = system: DU-145
ACHN = system: ACHN
OVCAR-4 = system: OVCAR-4
UO-31 = system: UO-31
OVCAR-5 = system: OVCAR-5
RPMI-8226 = system: RPMI-8226
MDA-MB-231 = system: MDA-MB-231
OVCAR-3 = system: OVCAR-3
Hs-578T = system: Hs-578T
NCI-H23 = system: NCI-H23
MCF7 = system: MCF7
HOP-62 = system: HOP-62
HCC 2998 = system: HCC 2998
NCI-H522 = system: NCI-H522
HT-29 = system: HT-29
LOX IMVI = system: LOX IMVI

For CC(C)CSCC1OC(n2cnc3c(N)nccc32)C(O)C1O (centres undefined), the GI50 (SK-OV-3) was > 100 µM (inactive), the GI50 (MOLT-4) was > 87.5 µM (inactive) and the GI50 (SR) was > 100 µM (inactive). For the same compound, the GI50 (CAKI-1) was > 100 µM (inactive), the GI50 (COLO 205) was > 86.1 µM (inactive) and the GI50 (T47D) was > 100 µM (inactive). For the same compound, the GI50 (SF-539) was > 100 µM (inactive), the GI50 (NCI-H460) was > 100 µM (inactive) and the GI50 (SK-MEL-5) was 43.8 µM (inactive). For the same compound, the GI50 (786-0) was > 100 µM (inactive), the GI50 (MDA-N) was > 100 µM (inactive) and the GI50 (UACC-62) was > 100 µM (inactive). For the same compound, the GI50 (M14) was > 100 µM (inactive), the GI50 (TK-10) was > 100 µM (inactive) and the GI50 (HCT-15) was greater than 100 µM. The GI50 (RXF 393) was > 52 µM (inactive), the GI50 (KM12) was > 100 µM (inactive) and the GI50 (EKVX) was 89.5 µM (inactive). The GI50 (UACC-257) was > 85.3 µM (inactive), the GI50 (SN12C) was > 100 µM (inactive) and the GI50 (SW-620) was > 100 µM (inactive). For the same compound, the GI50 (CCRF-CEM) was > 100 µM (inactive), the GI50 (SK-MEL-2) was > 100 µM (inactive) and the GI50 (HCT-116) was > 100 µM (inactive). For the same compound, the GI50 (K562) was > 75 µM (inactive), the GI50 (BT-549) was > 100 µM (inactive) and the GI50 (SF-268) was > 100 µM (inactive). For the same compound, the GI50 (NCI-H226) was > 57.1 µM (inactive), the GI50 (OVCAR-8) was > 100 µM (inactive) and the GI50 (SNB-19) was > 100 µM (inactive). The GI50 (MDA-MB-435) was > 100 µM (inactive), the GI50 (HOP-92) was > 72.9 µM (inactive) and the GI50 (A498) was > 100 µM (inactive). The GI50 (HL-60) was > 100 µM (inactive), the GI50 (PC-3) was > 100 µM (inactive) and the GI50 (SNB-75) was > 100 µM (inactive). For the same compound, the GI50 (U-251) was > 100 µM (inactive), the GI50 (SK-MEL-28) was > 100 µM (inactive) and the GI50 (IGROV-1) was > 100 µM (inactive). The GI50 (Malme-3M) was > 100 µM (inactive), the GI50 (A549) was > 100 µM (inactive) and the GI50 (NCI/ADR-RES) was > 100 µM (inactive). For the same compound, the GI50 (SF-295) was > 100 µM (inactive), the GI50 (DU-145) was > 100 µM (inactive) and the GI50 (ACHN) was > 100 µM (inactive). The GI50 (OVCAR-4) was > 100 µM (inactive), the GI50 (UO-31) was > 100 µM (inactive) and the GI50 (OVCAR-5) was > 100 µM (inactive). For the same compound, the GI50 (RPMI-8226) was > 67 µM (inactive), the GI50 (MDA-MB-231) was > 100 µM (inactive) and the GI50 (OVCAR-3) was > 100 µM (inactive). For the same compound, the GI50 (Hs-578T) was > 72.1 µM (inactive), the GI50 (NCI-H23) was > 100 µM (inactive) and the GI50 (MCF7) was > 100 µM (inactive). The GI50 (HOP-62) was > 100 µM (inactive), the GI50 (HCC 2998) was 27.9 µM (inactive) and the GI50 (NCI-H522) was 45.8 µM (inactive). For the same compound, the GI50 (HT-29) was > 100 µM (inactive) and the GI50 (LOX IMVI) was > 100 µM (inactive).
